In patent US7915238B2, “Immunomodulatory compounds and methods of use thereof” (Eisai R & D Management Co., Ltd., priority 1999, dated 2011):
Values joined by “and” are separate entries in the source; they are usually repeats but may differ in a detail not shown here. Identical values can stand only once.

Tests used:
[1] = tested on: EGFRvIII peptide; test: EGFRvIII peptide-specific antibody titers after immunization (ELISA); format: in vivo, C57/BL6J mice; settings: s.c. with 25 μg peptide-KLH, 804057 3 μg, GM-CSF 5 μg
Description: To determine whether an adjuvant can enhance the effect of an oncology antigen (i.e., an antigen that can be used to vaccinate a subject individual against a cancer), C57/BL6J mice were immunized subcutaneously with a tumor-associated peptide, LEEKKGNYVVTDHC (SEQ ID NO:2) (derived from a mutant form of EGFR, […]) conjugated to the protein carrier keyhole limpet hemocyanin (KLH), with or without Compound 804057 or murine GM-CSF, a cytokine used in cancer vaccine trials to boost immune response. Compound 804057 was dosed at 3 μg, GM-CSF at 5 μg and the peptide-KLH conjugate at 25 μg per dose. Mice were immunized three times at intervals of three weeks. Serum was prepared from mice two weeks after each immunization and tested for […] peptide-specific antibodies using ELISA on plates coated with EGFRvIII peptide conjugated to bovine serum albumin. The results in Table 3 are presented as titers from individual animals. The titer is defined as the last serum dilution at which a signal at 0.25 OD units above background was observed.

[2] = tested on: Human Whole Blood; test: Cytokine release in human whole blood (ELISA); format: cell-based
Method: The most readily available human system to test compound activity on monocytes/macrophages is in whole blood. Various concentrations of compounds of the invention were added as 10× stocks in 50 μl of Ca^++, Mg^++-free Hank's balanced salt solution (HBSS) followed by 50 μl of HBSS into 400 μl of heparinized whole blood obtained from normal volunteers (18-51 years old; 110-230 lb.) into the wells of plastic assay plates, for a total volume of 500 μl/well (final concentration of whole blood was 80%). After a 3-hour incubation with gentle shaking at 37° C. in a 5% CO2 atmosphere, the assay plates were centrifuged at 1000×g for 10 min. at 4° C. and plasma was drawn off and frozen at −80° C. Plasma samples were analyzed for TNF-alpha, IL-10, and IL-12 by ELISA (Genzyme Corp., Cambridge, Mass.). Each assay point was tested in triplicate.
This stimulatory activity can be compared to that of 10 ng/ml endotoxin (or LPS) present in similar incubations in the same assay.

[3] = tested on: Whole blood; test: IL-12p70 production in whole blood, 24 hrs (Table 2); format: cell-based, human; settings: 50 nM
[4] = tested on: MUC1 IL-10−/− mice; test: MUC-1 vaccine with adjuvant in mice that develop IBD and colon adenocarcinoma; format: in vivo, mouse
Method: To test the effects of a MUC-1 vaccine with Compound 804057 adjuvant for treating inflammatory bowel disease (IBD) and subsequent development of colon adenocarcinoma, an engineered mouse strain that lacks the IL-10 gene and expresses transgenic human MUC1 was used. Such mice spontaneously develop intestinal inflammation resembling IBD followed by colon adenocarcinoma. […] 4, 2006.
In these experiments, mice were immunized intranasally with […] of Tn MUC100mer ([…])×5, SEQ ID NO:1) and […] of Compound 804057. Animals were vaccinated at about 4.5 weeks and boosted at about 6.5 weeks and 9 weeks.

[5] = tested on: Nonadherent PBMC; test: Cytokine production by stimulated nonadherent human PBMC; format: cell-based; settings: 50 nM, 24 hrs
[6] = tested on: Adherent PBMC; test: Cytokine production by stimulated adherent human PBMC; format: cell-based; settings: 50 nM
[7] = tested on: B16F10 murine melanoma cells; test: Survival of melanoma-bearing mice, intratumoral GM-CSF cells with compound; format: in vivo, B6 mice; settings: about 3-10 μg, combined with GM-CSF cells, vs untreated or GM-CSF cells alone, FIG. 8
Method: The effect of Compound 804057 on treatment of B6 mice that were engrafted subcutaneously with 1×10^6 syngeneic B16F10 murine melanoma cells was examined. When tumors became palpable, the mice were injected intratumorally with GM-CSF cells alone, or in combination with Compound 804057 (about 3-10 μg). Survival of the animals was monitored.

[8] = tested on: B16F10 murine melanoma cells; test: Survival of melanoma-bearing mice, i.p. compound with s.c. B16 GM-CSF cell vaccine; format: in vivo, B6 mice (C57BL6 mice); settings: i.p. Compound 804057 combined with s.c. B16 GM-CSF cells, three days after tumor inoculation; FIG. 7
Description: To determine the effect of Compound 804057 when administered intraperitoneally with a cancer vaccine, e.g., granulocyte-macrophage colony stimulating factor (GM-CSF) secreting tumor cells, a mouse model using melanoma cells was used. Compound 804057 is a TLR-4 (Toll-like receptor-4) agonist. B6 mice (C57BL6 mice) were engrafted subcutaneously with […] murine melanoma cells. Three days after tumor cell inoculation, the mice were either (1) vaccinated subcutaneously (s.c.) with 1×10^6 B16F10 tumor cells that were genetically modified to stably express and secrete murine GM-CSF (B16-GM-CSF cells); (2) vaccinated intraperitoneally (i.p.) with Compound 804057; or (3) were treated with a combination of s.c. GM-CSF cell vaccination and i.p. Compound 804057 (the GM-CSF cell vaccination and Compound 804057 vaccination were administered at separate sites in the mice). In these experiments, the GM-CSF cells were inactivated by gamma-irradiation prior to inoculation. Survival of the animals was monitored.

[9] = titer = last serum dilution 0.25 OD above background

CCCCCCCCCCCC(=O)CC(=O)N[C@H](COCC[C@@H](CCCCCCC)OC(=O)CCCCCCCCCCC)COP(=O)([O-])OCCNC(=O)NCCOP(=O)([O-])OC[C@@H](COCC[C@@H](CCCCCCC)OC(=O)CCCCCCCCCCC)NC(=O)CC(=O)CCCCCCCCCCC.[Na+].[Na+] [ER 804057]
Geometric mean titer, IgG1 [1]: 20182
Antibody titers to EGFRvIII peptide, IgG1, individual animals [1, 9]: 24000 (6×) and 48000 and 3000
Antibody titers to EGFRvIII peptide, IgG2a, individual animals [1, 9]: 6000 (2×) and 12000 (3×) and 24000 and 48000 and 1500
IL-10 release from blood-borne cells ([2]; FIG. 2): stimulate blood-borne cells to release IL-10
IL-12 release from blood-borne cells ([2]; FIG. 2): stimulate blood-borne cells to release IL-12
EC50 ([2]; whole blood, vs. % of LPS at 10 ng/ml, read-out: WB ED50 vs LPS@ 10 ng/ml): 8 nM
Cytokine Production IL-12p70 [3]: 1332 pg/mL
appearance of histologically detected tumors ([4]; added to the MUC-1 vaccine): suppresses the appearance of histologically detected tumors
progression to rectal prolapse associated with IBD ([4]; added to the MUC-1 vaccine): can slow the progression to rectal prolapse associated with IBD
Age (weeks) ([4]; age of treated mice, Table 5): 12.5-18 weeks
development of colon cancer ([4]; intranasal with MUC-1 vaccine (Tn MUC100mer)): did not develop colon cancer
onset of IBD ([4]; intranasal with MUC-1 vaccine (Tn MUC100mer), FIG. 9): delayed onset of IBD or did not develop IBD
survival ([4]; intranasal with MUC-1 vaccine (Tn MUC100mer), FIG. 10): improved survival
Colon tumors ([4]; mice with tumors / mice treated): 3/3
Cytokine Production GM-CSF [5]: 353 pg/mL
Cytokine Production IL-1α [5]: 108 pg/mL
Cytokine Production IL-1β [5]: 431 pg/mL
Cytokine Production Interferon-γ [5]: 331 pg/mL
Cytokine Production IL-1α ([6]; 4 hrs): 8 pg/mL
Cytokine Production IL-1β ([6]; 4 hrs): 55 pg/mL
Cytokine Production IL-6 ([6]; 4 hrs): 551 pg/mL
Cytokine Production Interferon-α ([6]; 4 hrs): 345 pg/mL
Cytokine Production TNF-α ([6]; 4 hrs): 3627 pg/mL
Cytokine Production IL-10 ([6]; 24 hrs): 175 pg/mL
Cytokine Production Interferon-α ([6]; 48 hrs): 175 pg/mL
survival of tumor-bearing mice [7]: increased survival
therapeutic efficacy (survival) of tumor-bearing mice [8]: enhanced the therapeutic efficacy of the GM-CSF cells
